We go through 1 molecule from article PMC7224190, “Pharmacological inhibition of PRMT7 links arginine monomethylation to the cellular stress response” (Nature Communications, 2020).

Common to all, as to experiment: biochemical
Set-up in all cases: radiometric methyltransferase assay with tritiated SAM, IC50

For one assay, the target named is PRMT1 (Homo sapiens, UniProt Q99873). The method, then: (§1) The methyltransferase selectivity was assessed at two compound concentrations of 1 and 10 μM by radiometric assays using tritiated-SAM. For methyltransferases: MLL1, MLL3, EZH1 (PRC2), and EZH2 (PRC2), G9a, GLP, SUV39H1, SUV39H2, SUV420H1, SUV420H2, SETD2, SETD8, SETDB1, SETD7, PRMT1, PRMT3, PRMT4, PRMT5/ MEP50 complex, PRMT6, PRMT7, PRMT8, PRMT9, PRDM9, SMYD2, SMYD3, DNMT1, and BCDIN3D the incorporation of a tritium-labeled methyl group into biotinylated substrate was monitored using scintillation proximity assay (SPA). Briefly, a 10 μL reaction containing ^3H-SAM and substrate at concentrations close to the apparent Km values for each enzyme (balanced conditions) was prepared. The reactions were quenched with 10 μL of 7.5 M guanidine hydrochloride; 180 μL of 20 mM Tris buffer (pH 8.0) were added, and the mixture was transferred to a 96-well FlashPlate and incubated for 1 h. The counts per minute (CPM) was measured on a TopCount plate reader. The CPM in the absence of compound or enzyme was defined as 100% activity and background (0%), respectively, for each dataset[74]–[76]. Selectivity of SGC8158 against 342 kinases was evaluated in a kinase panel TR-FRET assay at 1 and 0.1 μM compound in duplicates as described before. Briefly, tagged kinases were incubated with compound and staurosporine-based fluorescent probe where the binding was detected using Tb conjugated anti-tag antibody energy transfer to the probe. Excitation wavelength was 337 nm and fluorescent emission signal was measured for Tb (486 nm) and fluorescent probe (BODIPY, 515 nm). Specific and non-specific binding was determined in the absence and presence of unlabeled staurosporine. Assays using biotinylated H2B (23–37) as a substrate were performed in buffer (20 mM Tris–HCl, pH 8.5, 0.01% Tween-20, and 5 mM DTT) containing 5 nM PRMT7, 1.1 µM ^3H-SAM (Cat.# NET155V250UC; Perkin Elmer; www.perkinelmer.com) and 0.3 µM H2B (23–37). The reaction mixtures were incubated for 60 min at 23 °C. To stop the enzymatic reactions, 10 µL of 7.5 M guanidine hydrochloride was added, followed by 180 µL of buffer (20 mM Tris, pH 8.0), mixed and then transferred to a 96-well FlashPlate (Cat.# SMP103; Perkin Elmer; www.perkinelmer.com). After mixing, the reaction mixtures in Flash plates were incubated for 1 h and the CPM were measured using Topcount plate reader (Perkin Elmer, www.perkinelmer.com). The CPM counts in the absence of compound for each dataset were defined as 100% activity. In the absence of the enzyme, the CPM counts in each dataset were defined as background (0%). The IC50 values were determined using GraphPad Prism 7 software. For the kinetic analysis of HSPA8 methylation by PRMT7, the assay mixture contained 20 mM Tris–HCl, pH 8.5, 0.01% Tween-20, and 5 mM dithiothreitol (DTT), 1 mM MgCl2, 1 mM ATP where indicated, 250 nM PRMT7, fixed concentration (20 µM) of SAM, various concentrations (up to 40 µM) of HSPA8; or fixed concentration (10 µM) of HSPA8 with different concentrations of SAM (up to 20 µM). […] To determine the mode of action, the experiments were performed in the presence of fixed biotinylated H2B peptide (residues 23–37) or HSPA8 substrate concentration and increasing SAM concentration or at fixed concentration of SAM and varying concentration of the substrate. Twenty µL of reaction mixtures were incubated at 23 °C for 60 min. To stop reactions, 100 µL of 10% trichloroacetic acid (TCA) was added, mixed and transferred to filter-plates (Millipore; cat.# MSFBN6B10; www.millipore.com). Plates were centrifuged at 930 × g (Allegra X-15R—Beckman Coulter, Inc.) for 2 min followed by two additional 10% TCA washes and one ethanol wash followed by centrifugation. Plates were dried and 30 µL MicroScint-O (
PRMT1, sequence (Q99873 whole entry): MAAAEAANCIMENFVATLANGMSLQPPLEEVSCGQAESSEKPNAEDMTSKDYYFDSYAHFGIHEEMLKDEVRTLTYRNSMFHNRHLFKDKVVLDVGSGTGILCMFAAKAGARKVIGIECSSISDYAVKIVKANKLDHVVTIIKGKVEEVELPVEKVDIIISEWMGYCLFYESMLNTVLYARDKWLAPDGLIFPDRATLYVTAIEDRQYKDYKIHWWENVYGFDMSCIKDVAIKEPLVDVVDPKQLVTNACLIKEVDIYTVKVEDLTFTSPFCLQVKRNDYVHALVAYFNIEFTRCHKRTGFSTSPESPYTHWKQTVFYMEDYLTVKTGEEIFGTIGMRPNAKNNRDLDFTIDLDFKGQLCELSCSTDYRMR

The next assay concerns the target PRMT3 (Homo sapiens, UniProt O60678). On the procedure: as §1
In a further assay the target is T1, PRMT9 (Homo sapiens, UniProt Q6P2P2).
T1 sequence (Q6P2P2 1-845): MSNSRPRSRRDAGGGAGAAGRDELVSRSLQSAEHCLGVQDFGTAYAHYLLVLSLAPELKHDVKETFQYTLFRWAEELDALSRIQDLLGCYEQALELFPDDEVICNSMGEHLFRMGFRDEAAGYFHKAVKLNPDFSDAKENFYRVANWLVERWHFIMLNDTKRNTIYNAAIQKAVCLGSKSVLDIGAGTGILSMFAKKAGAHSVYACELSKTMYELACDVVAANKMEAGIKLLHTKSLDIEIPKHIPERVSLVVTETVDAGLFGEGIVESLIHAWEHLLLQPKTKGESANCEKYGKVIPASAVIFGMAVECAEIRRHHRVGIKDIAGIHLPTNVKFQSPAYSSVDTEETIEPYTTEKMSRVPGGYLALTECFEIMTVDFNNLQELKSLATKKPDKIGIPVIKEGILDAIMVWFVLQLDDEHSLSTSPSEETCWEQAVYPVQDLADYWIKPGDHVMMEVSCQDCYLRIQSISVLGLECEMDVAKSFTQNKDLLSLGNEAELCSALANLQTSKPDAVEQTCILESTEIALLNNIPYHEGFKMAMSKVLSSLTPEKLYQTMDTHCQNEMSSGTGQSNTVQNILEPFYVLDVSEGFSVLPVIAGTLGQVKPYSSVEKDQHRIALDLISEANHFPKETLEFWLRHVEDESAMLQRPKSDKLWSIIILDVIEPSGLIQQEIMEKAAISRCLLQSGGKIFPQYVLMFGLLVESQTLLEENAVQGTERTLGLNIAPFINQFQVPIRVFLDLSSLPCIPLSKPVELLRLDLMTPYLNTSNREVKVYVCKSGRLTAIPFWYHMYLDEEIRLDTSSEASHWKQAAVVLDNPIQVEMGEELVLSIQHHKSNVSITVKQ
The method, then:
as §1

PRMT3, sequence (O60678 whole entry): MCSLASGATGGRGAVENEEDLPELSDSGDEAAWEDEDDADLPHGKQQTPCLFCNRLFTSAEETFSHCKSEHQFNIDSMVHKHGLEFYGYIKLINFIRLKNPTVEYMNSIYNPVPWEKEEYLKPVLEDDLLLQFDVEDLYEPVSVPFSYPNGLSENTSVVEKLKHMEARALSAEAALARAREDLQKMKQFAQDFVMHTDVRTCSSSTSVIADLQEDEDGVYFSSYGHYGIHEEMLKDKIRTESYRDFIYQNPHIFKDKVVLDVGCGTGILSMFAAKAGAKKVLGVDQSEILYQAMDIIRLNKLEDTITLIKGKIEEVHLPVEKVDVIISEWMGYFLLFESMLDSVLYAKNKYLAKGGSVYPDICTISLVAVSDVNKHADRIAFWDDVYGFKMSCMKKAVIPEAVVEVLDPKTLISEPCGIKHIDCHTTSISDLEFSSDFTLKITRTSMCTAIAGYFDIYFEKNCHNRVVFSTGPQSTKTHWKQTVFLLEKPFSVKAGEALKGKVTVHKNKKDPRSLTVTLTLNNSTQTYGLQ

The term IC50 denotes the concentration that inhibits the measured activity by half. On to `Nc1ncnc2c1ncn2[C@@H]1O[C@H](CSCCCNCc2cccc(-c3ccc(Cl)cc3)c2)[C@@H](O)[C@H]1O` [SGC8172], for which the values for the IC50 at PRMT1, at PRMT3 and on PRMT9 were greater than 5 µM, 0.269 µM and 0.138 µM, respectively.
